Each compound was assayed on MAGI-CCR5 HeLa cells, HIV-1 IIIB, beta-gal luminescence, 48 h (assay: inhibitors of X4-tropic HIV-1 replication, dose response, cell-based, MAGI-CCR5 HeLa, beta-gal luminescence, 2% serum, set 2 (AID 504570)).

IC50, active:
Cc1c2c(=O)n(-c3nc4ccccc4s3)nc-2cc(O)n1Cc1ccncc1 14.7 µM, COc1ccc(CCn2c(O)cc3nn(-c4nc5ccccc5s4)c(=O)c-3c2C)cc1 11.8 µM, COc1ccc(Cn2c(O)cc3nn(-c4nc5ccccc5s4)c(=O)c-3c2C)cc1 33.6 µM, Cc1c2c(=O)n(-c3nc4ccccc4s3)nc-2cc(O)n1CCc1cccs1 26 µM, Cc1c2c(=O)n(-c3nc4ccccc4s3)nc-2cc(O)n1CCc1ccc(O)cc1 25.6 µM, COc1ccccc1Cn1c(O)cc2nn(-c3nc4ccccc4s3)c(=O)c-2c1C 26.5 µM, Cc1c2c(=O)n(-c3nc4ccccc4s3)nc-2cc(O)n1CCC(C)C 5.34 µM, Cc1c2c(=O)n(-c3nc4ccccc4s3)nc-2cc(O)n1Cc1ccccc1Cl 3.07 µM, Cc1c2c(=O)n(-c3nc4ccccc4s3)nc-2cc(O)n1Cc1ccc(F)cc1 3.75 µM, Cc1c2c(=O)n(-c3nc4ccccc4s3)nc-2cc(O)n1Cc1cccnc1 7.09 µM, Cc1c2c(=O)n(-c3nc4ccccc4s3)nc-2cc(O)n1C1CC1 7.53 µM, Cc1c2c(=O)n(-c3nc4ccccc4s3)nc-2cc(O)n1Cc1ccccc1 14.5 µM, Cc1c2c(=O)n(-c3nc4ccccc4s3)nc-2cc(O)n1Cc1cccs1 11.9 µM

— PubChem BioAssay AID504570 (Southern Research Specialized Biocontainment Screening …, 2011)
